One test has as its target T1, EphA8 (Homo sapiens, UniProt P29322).
T1 sequence (P29322 28-1005): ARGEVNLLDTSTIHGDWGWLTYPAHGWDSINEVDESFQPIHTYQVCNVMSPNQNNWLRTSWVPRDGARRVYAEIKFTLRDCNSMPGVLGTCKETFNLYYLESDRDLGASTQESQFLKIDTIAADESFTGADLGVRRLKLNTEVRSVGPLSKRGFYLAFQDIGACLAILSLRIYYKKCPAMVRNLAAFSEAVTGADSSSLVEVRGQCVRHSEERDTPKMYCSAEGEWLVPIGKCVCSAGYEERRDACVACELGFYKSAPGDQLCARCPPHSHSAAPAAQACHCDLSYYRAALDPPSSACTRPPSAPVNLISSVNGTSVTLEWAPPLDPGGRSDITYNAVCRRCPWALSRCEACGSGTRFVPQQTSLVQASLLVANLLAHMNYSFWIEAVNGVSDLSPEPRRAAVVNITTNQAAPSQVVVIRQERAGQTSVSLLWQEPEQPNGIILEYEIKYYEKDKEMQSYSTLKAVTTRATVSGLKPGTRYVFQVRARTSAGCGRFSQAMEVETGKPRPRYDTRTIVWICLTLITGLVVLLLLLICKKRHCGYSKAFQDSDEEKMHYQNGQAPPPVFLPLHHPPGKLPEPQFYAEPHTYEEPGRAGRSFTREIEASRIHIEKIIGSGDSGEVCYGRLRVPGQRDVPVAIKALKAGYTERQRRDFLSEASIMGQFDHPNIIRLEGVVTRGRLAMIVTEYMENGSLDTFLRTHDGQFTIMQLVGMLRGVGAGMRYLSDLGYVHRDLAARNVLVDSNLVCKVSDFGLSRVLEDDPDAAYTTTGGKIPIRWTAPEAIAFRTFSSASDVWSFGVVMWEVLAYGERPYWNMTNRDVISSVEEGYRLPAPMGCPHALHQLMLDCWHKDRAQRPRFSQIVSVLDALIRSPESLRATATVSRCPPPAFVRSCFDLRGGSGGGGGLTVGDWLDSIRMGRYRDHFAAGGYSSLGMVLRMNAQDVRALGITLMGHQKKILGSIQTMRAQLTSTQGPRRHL
The test can be described thus: EphA8 Kinase Activity Assay. The test is classed as biochemical. The conditions noted are these: read-out: EphA8, % INH, at 30 uM.

The target of another test is RET kinase (Homo sapiens, UniProt P07949). The test can be described thus: RET Kinase Activity Assay. The test is classed as biochemical. The conditions noted are these: read-out: Ret, % INH, at 30 uM. Put shortly: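 RET […] was preincubated with compound for 15 min, then phosphorylated biotinylated Pyk-2 substrate for 1 h at room temperature with 75 μM ATP and 10 mM MgCl2. Product was captured on streptavidin plates and detected with anti-phosphotyrosine, an AP-tagged secondary antibody and Attophos fluorescence.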
RET kinase, sequence (P07949 29-1114): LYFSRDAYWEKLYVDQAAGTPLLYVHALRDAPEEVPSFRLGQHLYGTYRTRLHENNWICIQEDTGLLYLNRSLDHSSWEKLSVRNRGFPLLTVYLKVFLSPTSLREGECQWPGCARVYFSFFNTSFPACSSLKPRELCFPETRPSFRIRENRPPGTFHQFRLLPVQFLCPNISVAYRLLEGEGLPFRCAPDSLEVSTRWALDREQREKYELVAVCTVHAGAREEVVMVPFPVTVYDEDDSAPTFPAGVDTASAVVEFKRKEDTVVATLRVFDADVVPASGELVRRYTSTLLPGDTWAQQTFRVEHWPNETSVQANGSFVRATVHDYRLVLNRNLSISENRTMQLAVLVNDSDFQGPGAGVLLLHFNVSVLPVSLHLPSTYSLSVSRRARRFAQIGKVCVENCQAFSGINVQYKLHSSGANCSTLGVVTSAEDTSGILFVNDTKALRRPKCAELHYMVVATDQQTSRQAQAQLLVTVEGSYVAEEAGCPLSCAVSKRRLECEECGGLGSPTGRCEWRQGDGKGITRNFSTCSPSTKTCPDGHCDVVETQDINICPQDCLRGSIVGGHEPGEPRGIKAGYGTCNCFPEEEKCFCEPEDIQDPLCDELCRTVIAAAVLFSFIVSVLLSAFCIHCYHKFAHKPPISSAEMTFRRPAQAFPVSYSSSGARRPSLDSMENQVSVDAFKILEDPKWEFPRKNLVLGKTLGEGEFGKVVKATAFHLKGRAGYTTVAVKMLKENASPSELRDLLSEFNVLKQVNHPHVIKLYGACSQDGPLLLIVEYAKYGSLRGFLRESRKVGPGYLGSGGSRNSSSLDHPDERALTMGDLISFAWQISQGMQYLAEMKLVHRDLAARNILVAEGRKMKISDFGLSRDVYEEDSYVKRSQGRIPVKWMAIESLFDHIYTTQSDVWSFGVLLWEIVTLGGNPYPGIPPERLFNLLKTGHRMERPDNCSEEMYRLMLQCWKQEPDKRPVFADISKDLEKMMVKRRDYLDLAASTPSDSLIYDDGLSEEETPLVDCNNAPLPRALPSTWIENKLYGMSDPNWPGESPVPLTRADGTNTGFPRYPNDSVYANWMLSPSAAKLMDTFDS

Some results are limits rather than exact numbers.

Turning to `CC(C)(C)c1ccc(CN2CCN(c3nc(N)nc4[nH]cnc34)Cc3ccccc32)cc1` [Compound 29, 6-[1-(4-tert-butylbenzyl)-1,2,3,5-tetrahydro-4H-1,4-benzodiazepin-4-yl]-9H-purin-2-amine], the inhibition at 30 µM on EphA8 is 50 to 79%; on RET kinase, less than 50%.
The like results for `COc1ccc(CN2CCN(c3nc(N)nc4[nH]cnc34)Cc3ccccc32)cc1OC` [Compound 27, 6-[1-(3,4-dimethoxybenzyl)-1,2,3,5-tetrahydro-4H-1,4-benzodiazepin-4-yl]-9H-purin-2-amine] were, in that order, less than 50% and less than 50%.
For the molecule `Nc1nc(N2CCN(Cc3ccc(F)cc3F)c3ccccc3C2)c2cn[nH]c2n1` [Compound 38, 4-[1-(2,4-difluorobenzyl)-1,2,3,5-tetrahydro-4H-1,4-benzodiazepin-4-yl]-1H-pyrazolo[3,4-d]pyrimidin-6-amine], the inhibition at 30 µM at EphA8 and at RET kinase was less than 50% in each case.

Values taken from patent US8343961B2, “Substituted heterocyclic compounds” (ArQule, Inc., priority 2009, dated 2013).
